Experimental data: patent publication US10085448B2, “Azoline compounds substituted by a carbocyclic condensed ring system” (BASF SE, priority 2014, dated 2018)
Where two headings read alike, the source gives them in different places.

Key:
Format in all cases: in vivo
[1] = test system: Diamond Back Moth (Plutella xylostella); experiment: Diamond back moth leaf-dip test; conditions: read-out: mortality in comparison with untreated controls
Procedure: B.1 Diamond Back Moth (Plutella xylostella)
The active compound was dissolved at the desired concentration in a mixture of 1:1 (vol:vol) distilled water: aceteone. Surfactant (Kinetic HV) was added at a rate of 0.01% (vol/vol).The test solution was prepared at the day of use.
Leaves of cabbage were dipped in test solution and air-dried. Treated leaves were placed in petri dishes lined with moist filter paper and inoculated with ten 3rd instar larvae. Mortality was recorded 72 hours after treatment. Feeding damages were also recorded using a scale of 0-100%.

[2] = test system: Green Peach Aphid (Myzus persicae); experiment: Green peach aphid systemic artificial diet test; conditions: 72 h, read-out: mortality in comparison with untreated controls
Text: B.2 Green Peach Aphid (Myzus persicae)
For evaluating control of green peach aphid (Myzus persicae) through systemic means the test unit consisted of 96-well-microtiter plates containing liquid artificial diet under an artificial membrane.
The compounds were formulated using a solution containing 75% v/v water and 25% v/v DMSO. Different concentrations of formulated compounds were pipetted into the aphid diet, using a custom built pipetter, at two replications.
After application, 5-8 adult aphids were placed on the artificial membrane inside the microtiter plate wells. The aphids were then allowed to suck on the treated aphid diet and incubated at about 23±1° C. and about 50±5% relative humidity for 3 days. Aphid mortality and fecundity was then visually assessed.

[3] = test system: Vetch Aphid (Megoura viciae); experiment: Vetch aphid leaf disk test; conditions: foliar, 120 h, read-out: mortality in comparison with untreated controls
Procedure: B.3 Vetch Aphid (Megoura viciae)
For evaluating control of vetch aphid (Megoura viciae) through contact or systemic means the test unit consisted of 24-well-microtiter plates containing broad bean leaf disks.
The compounds were formulated using a solution containing 75% v/v water and 25% v/v DMSO. Different concentrations of formulated compounds were sprayed onto the leaf disks at 2.5 μl, using a custom built micro atomizer, at two replications.
After application, the leaf disks were air-dried and 5-8 adult aphids placed on the leaf disks inside the microtiter plate wells. The aphids were then allowed to suck on the treated leaf disks and incubated at about 23±1° C. and about 50±5% relative humidity for 5 days. Aphid mortality and fecundity was then visually assessed.

[4] = test system: Tobacco Budworm (Heliothis virescens); experiment: Tobacco budworm insect diet test; conditions: 120 h, read-out: mortality in comparison with untreated controls
Procedure: B.4 Tobacco Budworm (Heliothis virescens)
For evaluating control of tobacco budworm (Heliothis virescens) the test unit consisted of 96-well-microtiter plates containing an insect diet and 15-25 H. virescens eggs.
The compounds were formulated using a solution containing 75% v/v water and 25% v/v DMSO. Different concentrations of formulated compounds were sprayed onto the insect diet at 10 μl, using a custom built micro atomizer, at two replications.
(§1) After application, microtiter plates were incubated at about 28±1° C. and about 80±5% relative humidity for 5 days. Egg and larval mortality was then visually assessed.

[5] = test system: Boll Weevil (Anthonomus grandis); experiment: Boll weevil insect diet test; conditions: 120 h, read-out: mortality in comparison with untreated controls
Procedure: B.5 Boll Weevil (Anthonomus grandis)
For evaluating control of boll weevil (Anthonomus grandis) the test unit consisted of 96-well-microtiter plates containing an insect diet and 5-10 A. grandis eggs.
The compounds were formulated using a solution containing 75% v/v water and 25% v/v DMSO. Different concentrations of formulated compounds were sprayed onto the insect diet at 5 μl, using a custom built micro atomizer, at two replications.
After application, microtiter plates were incubated at about 25±1° C. and about 75±5% relative humidity for 5 days. Egg and larval mortality was then visually assessed.

[6] = test system: Mediterranean Fruitfly (Ceratitis capitata); experiment: Mediterranean fruitfly insect diet test; conditions: 120 h, read-out: mortality in comparison with untreated controls
Procedure: B.6 Mediterranean Fruitfly (Ceratitis capitata)
For evaluating control of Mediterranean fruitfly (Ceratitis capitata) the test unit consisted of microtiter plates containing an insect diet and 50-80 C. capitata eggs. The compounds were formulated using a solution containing 75% v/v water and 25% v/v DMSO. Different concentrations of formulated compounds were sprayed onto the insect diet at 5 μl, using a custom built micro atomizer, at two replications.
as §1

[7] = test system: Orchid Thrips (Dichromothrips corbetti); experiment: Orchid thrips floral-immersion test; conditions: 72 h, read-out: mortality in comparison with untreated controls
Procedure: B.7 Orchid Thrips (Dichromothrips corbetti)
Dichromothrips corbetti adults used for bioassay were obtained from a colony maintained continuously under laboratory conditions. For testing purposes, the test compound is diluted in a 1:1 mixture of acetone:water (vol:vol), plus Kinetic HV at a rate of 0.01% v/v.
Thrips potency of each compound was evaluated by using a floral-immersion technique. All petals of individual, intact orchid flowers were dipped into treatment solution and allowed to dry in Petri dishes. Treated petals were placed into individual re-sealable plastic along with about 20 adult thrips. All test arenas were held under continuous light and a temperature of about 28° C. for duration of the assay. After 3 days, the numbers of live thrips were counted on each petal. The percent mortality was recorded 72 hours after treatment.

[8] = test system: Rice Green Leafhopper (Nephotettix virescens); experiment: Rice green leafhopper sprayed rice seedling test; conditions: 72 h, read-out: mortality in comparison with untreated controls
Procedure: B.8 Rice Green Leafhopper (Nephotettix virescens)
Rice seedlings were cleaned and washed 24 hours before spraying. The active compounds were formulated in 1:1 acetone:water (vol:vol), and 0.01% vol/vol surfactant (Kinetic HV) was added. Potted rice seedlings were sprayed with 5-6 ml test solution, air dried, covered with Mylar cages and inoculated with 10 adults. Treated rice plants were kept at about 28-29° C. and relative humidity of about 50-60%. Percent mortality was recorded after 72 hours.

[9] = test system: Red Spider Mite (Tetranychus kanzawai); experiment: Red spider mite sprayed cowpea bean test; conditions: 72 h, read-out: mortality in comparison with untreated controls
Procedure: B.9 Red Spider Mite (Tetranychus kanzawai)
The active compound was dissolved at the desired concentration in a mixture of 1:1 (vol:vol) distilled water: acetone. Add surfactant (Kinetic HV) was added at a rate of 0.01% (vol/vol).The test solution was prepared at the day of use.
Potted cowpea beans of 4-5 days of age were cleaned with tap water and sprayed with 1-2 ml of the test solution using air driven hand atomizer. The treated plants were allowed to air dry and afterwards inoculated with 30 or more mites by clipping a cassava leaf section from rearing population. Treated plants were placed inside a holding room at about 25-27° C. and about 50-60% relative humidity. Percent mortality was assessed 72 hours after treatment.

[10] = test system: Southern Armyworm (Spodoptera eridania); experiment: Southern armyworm sprayed lima bean test; conditions: 96 h, read-out: mortality in comparison with untreated controls
Procedure: B.10 Southern Armyworm (Spodoptera eridania)
The active compounds were formulated in cyclohexanone as a 10,000 ppm solution supplied in tubes. The tubes were inserted into an automated electrostatic sprayer equipped with an atomizing nozzle and they served as stock solutions for which lower dilutions were made in 50% acetone:50% water (v/v). A nonionic surfactant (Kinetic®) was included in the solution at a volume of 0.01% (v/v).
Lima bean plants (variety Sieva) were grown 2 plants to a pot and selected for treatment at the 1st true leaf stage. Test solutions were sprayed onto the foliage by an automated electrostatic plant sprayer equipped with an atomizing spray nozzle. The plants were dried in the sprayer fume hood and then removed from the sprayer. Each pot was placed into perforated plastic bags with a zip closure. About 10 to 11 armyworm larvae were placed into the bag and the bags zipped closed. Test plants were maintained in a growth room at about 25° C. and about 20-40% relative humidity for 4 days, avoiding direct exposure to fluorescent light (24 hour photoperiod) to prevent trapping of heat inside the bags. Mortality and reduced feeding were assessed 4 days after treatment, compared to untreated control plants.

[11] = test system: Green Soldier Stink Bug (Nezara viridula); experiment: Green soldier stink bug soybean pod spray test; conditions: 120 h, read-out: mortality in comparison with untreated controls
Procedure: B.11 Green Soldier Stink Bug (Nezara viridula)
(§2) The active compound was dissolved at the desired concentration in a mixture of 1:1 (vol:vol) distilled water: acetone. Surfactant (Kinetic HV) was added at a rate of 0.01% (vol/vol).The test solution was prepared at the day of use.
Soybean pods were placed in glass Petri dishes lined with moist filter paper and inoculated with ten late 3rd instar N. viridula. Using a hand atomizer, approximately 2 ml solution is sprayed into each Petri dish. Assay arenas were kept at about 25° C. Percent mortality was recorded after 5 days.

[12] = test system: Neotropical Brown Stink Bug (Euschistus heros); experiment: Neotropical brown stink bug soybean pod spray test; conditions: 120 h, adults on soybean pods, sprayed, after 5 days, read-out: mortality in comparison with untreated controls
Procedure: B.12 Neotropical Brown Stink Bug (Euschistus heros)
as §2
Soybean pods were placed in microwavable plastic cups and inoculated with ten adult stage E. heros. Using a hand atomizer, approximately 1 ml solution is sprayed into each cup, insects and food present. A water source was provided (cotton wick with water). Each treatment was replicated 2-fold. Assay arenas were kept at about 25° C. Percent mortality was recorded after 5 days.

[13] = 2500 ppm, egg and larval mortality on sprayed insect diet, 5 days

CC(=O)NCc1ccc(C2=NOC(c3cc(Cl)c(F)c(Cl)c3)(C(F)(F)F)C2)c2c1CCC2 (stereo not drawn) [Compound 1-4, N-[[7-[5-(3,5-Dichloro-4-fluoro-phenyl)-5-(trifluoromethyl)-4H-isoxazol-3-yl]indan-4-yl]methyl]acetamide]
≥ 75%: mortality at 300 ppm ([1]; in Brassica oleracea, 72 h) | mortality at 2500 ppm [2] | mortality at 2500 ppm [3] | mortality at 2500 ppm [4] | mortality at 2500 ppm [5] | mortality at 2500 ppm [6] | mortality at 300 ppm [7] | mortality at 300 ppm [8] | mortality at 300 ppm [9] | mortality at 10 ppm [10] | mortality at 300 ppm [11] | mortality at 100 ppm [12]

O=C(NCC(F)(F)F)N/N=C/c1ccc(C2=NOC(c3cc(Cl)c(F)c(Cl)c3)(C(F)(F)F)C2)c2c1CCC2 (stereo not drawn) [Compound 2-3, 1-[(E)-[7-[5-(3,5-Dichloro-4-fluoro-phenyl)-5-(trifluoromethyl)-4H-isoxazol-3-yl]indan-4-yl]methyleneamino]-3-(2,2,2-trifluoroethyl)urea]
≥ 75%: mortality at 300 ppm ([1]; in Brassica oleracea, 72 h) | mortality at 2500 ppm [2] | mortality at 2500 ppm [3] | mortality at 2500 ppm [4] | mortality at 2500 ppm [5] | mortality at 2500 ppm [6] | mortality at 300 ppm [7] | mortality at 300 ppm [9]

O=C(NCC(F)(F)F)N/N=C/c1ccc(C2=NCC(c3cc(Cl)cc(Cl)c3)(C(F)(F)F)C2)c2c1CCC2 (stereo not drawn) [Compound 3-1, 1-[(E)-[7-[3-(3,5-Dichlorophenyl)-3-(trifluoromethyl)-2,4-dihydropyrrol-5-yl]indan-4-yl]methyleneamino]-3-(2,2,2-trifluoroethyl)urea]
≥ 75%: mortality at 300 ppm ([1]; 300 ppm, cabbage leaves dipped, 3rd instar larvae, 72 hours after treatment) | mortality at 2500 ppm ([2]; 2500 ppm, adult aphids on treated artificial diet, 3 days) | mortality at 2500 ppm ([3]; 2500 ppm, adult aphids on sprayed broad bean leaf disks, 5 days) | mortality at 2500 ppm [4, 13] | mortality at 2500 ppm [5, 13] | mortality at 2500 ppm [6, 13] | mortality at 10 ppm ([10]; 10 ppm, larvae on sprayed lima bean plants, 4 days after treatment)

Fc1c(Cl)cc(C2(C(F)(F)F)CC(c3ccc(-n4cncn4)c4c3CCC4)=NO2)cc1Cl (stereo not drawn) [Compound 4-1, 5-(3,5-Dichloro-4-fluoro-phenyl)-3-[7-(1,2,4-triazol-1-yl)indan-4-yl]-5-(trifluoromethyl)-4H-isoxazole]
≥ 75%: mortality at 300 ppm ([1]; in Brassica oleracea, 72 h) | mortality at 300 ppm [7] | mortality at 300 ppm [8]
